Measured values taken from patent publication US10829453B2, “Antagonists of the kappa opioid receptor” (University of Kansas, priority 2014, dated 2020).
Where a name gives a salt, the structure may show the parent alone.

What was measured:
[1] = target: T1, human kappa opioid receptors (Homo sapiens, UniProt P41145); test: [35S]GTPγS binding (G protein coupling) assay, antagonism of U69,593; type: biochemical; details: CHO-hKOR membranes, 100 nM U69,593, n ≥ 3; for IC50: read-out: IC50 (nM) ± S.E.M. [35S]GTPγS
T1 construct: HA; expressed in transfected cells; host or cells: Chinese hamster ovary (CHO) cells, virally transfected
T1 sequence (P41145 whole entry): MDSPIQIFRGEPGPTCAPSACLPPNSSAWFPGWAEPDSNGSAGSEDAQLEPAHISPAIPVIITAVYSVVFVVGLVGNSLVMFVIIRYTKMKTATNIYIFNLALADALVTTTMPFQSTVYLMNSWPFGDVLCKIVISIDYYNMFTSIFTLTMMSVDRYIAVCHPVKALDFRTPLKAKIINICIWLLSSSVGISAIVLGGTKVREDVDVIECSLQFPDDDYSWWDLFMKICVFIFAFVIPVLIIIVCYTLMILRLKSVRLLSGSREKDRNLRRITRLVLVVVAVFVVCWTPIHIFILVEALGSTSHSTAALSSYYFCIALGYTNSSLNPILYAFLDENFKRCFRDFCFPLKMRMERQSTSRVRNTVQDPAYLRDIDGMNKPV
Description: (§1) Chinese hamster ovary (CHO) cells were virally transfected to express HA-tagged recombinant human kappa opioid receptors (CHO-hKOR cell line) and maintained in DMEM/F-12 media (Invitrogen) supplemented with 10% fetal bovine serum, 1% penicillin/streptomycin, and 500 μg/ml geneticin as described in Schmid, C. L.; Streicher, J. M.; Groer, C. E.; Munro, T. A.; Zhou, L.; Bohn, L. M. Functional selectivity of 6′-guanidinonaltrindole (6′-GNTI) at kappa opioid receptors in striatal neurons. […] A DiscoveRx PathHunter™ U2OS cell line expressing βarrestin2 and hKOR (U2OS-hKOR-βarrestin2-DX) was purchased from DiscoveRx Corporation (Fremont, Calif.) and maintained MEM with 10% fetal bovine serum, 1% penicillin/streptomycin, 500 μg/ml geneticin and 250 μg/ml hygromycin B. All cells were grown at 37° C. (5% CO2 and 95% relative humidity).
Briefly, cells were serum starved for 1 hour and membranes were prepared. Each reaction was performed at room temperature and contained 15 μg of membrane protein, 40 μM GDP, ˜0.1 nM [^35S]GTPγS and increasing concentrations of compounds in assay buffer (50 mM Tris-HCl, pH 7.4, 100 mM NaCl, 5 mM MgCl2, 1 mM EDTA). Directly after the addition of test compounds, 100 nM U69,593 was added to yield a total volume of 200 μL. After 1 hour, reactions were quenched by rapid filtration through GF/B filters and radioactivity was counted with a TopCount NXT high throughput screening microplate scintillation and luminescence counter (PerkinElmer Life Sciences).
(§2) All compounds were run in parallel assays in 2-4 replicates per individual experiment. All studies were performed n≥3 independent experiments in multiple replicates. For determination of antagonist inhibition, each individual experiment was normalized to the percentage of maximal U69,593 stimulation. The efficacy and potency values were obtained from the averages of the nonlinear regression analysis performed on each individual curve and are reported as the mean±S.E.M.

[2] = target: T1, human kappa opioid receptors; test: In-cell western ERK1/2 phosphorylation, inhibition of U69,593 induced ERK phosphorylation; type: cell-based; details: hKOR-CHO cells, 100 nM U69,593, n ≥ 3; for IC50: read-out: IC50 (nM) ± S.E.M. ERK
Description: as §1
Briefly, hKOR-CHO cells were plated in 384-well plate at 15,000 cells per well and incubated at 37° C. overnight. After an hour serum starve, cells were treated with compound followed by the addition of 100 nM U69,593 and a 10 minute incubation at 37° C. Cells were fixed, permeabilized, blocked, and stained with primary antibodies for phosphorylated ERK1/2 and total-ERK1/2 (1:300 and 1:400, respectively) at 4° C. overnight. Cells then incubated with Li-Cor secondary antibodies (anti-rabbit IRDye800CW, 1:500; anti-mouse IRDye680LT, 1:1500) and imaged with the Odyssey Infrared Imager (Li-Cor Biosciences, Lincoln, Nebr.) at 700 and 800 nm.
as §2

hKOR = target: T2, hKOR (Homo sapiens, UniProt P41145); test: βArrestin2 recruitment (DiscoveRx PathHunter) assay; type: cell-based; details: for IC50: read-out: IC50 (nM) ± S.E.M. βarr2; for β arrestin 2 Inhibition (% U69,593 Stimulation) 1 μm: compound at 1 μm; for β arrestin 2 Inhibition (% U69,593 Stimulation) 1 μm / β arrestin 2 Inhibition (% U69,593 Stimulation) 10 Nm / β arrestin 2 Inhibition (% U69,593 Stimulation) 100 Nm: set concentration of U69,593; for β arrestin 2 Inhibition (% U69,593 Stimulation) 10 Nm: compound at 10 Nm; for β arrestin 2 Inhibition (% U69,593 Stimulation) 100 Nm: compound at 100 Nm
T2 construct: host or cells: U2OS (PathHunter U2OS-hKOR-βarrestin2-DX), purchased engineered cell line
T2 sequence (P41145 whole entry): as above
Description: as §1
Briefly, 5,000 cells/well were plated overnight in Opti-MEM containing 1% fetal bovine serum, 1% penicillin/streptomycin. Cells were pretreated with antagonist for 15 min at 37° C. followed by the addition of 1 μM U69,593 and a 90 minute incubation at 37° C. PathHunter™ detection reagent was added and cells incubated at room temperature for 60 minutes. Chemiluminescence was detected using a SpectraMax® M5e Multimode Plate Reader (Molecular Devices). βarrestin2 recruitment assays were also performed using an imaging platform (Cellomics) to visulalize translocation of a fluorescent protein tagged βarrestin2 to the membrane of KOR expressing U2OS cells.
as §2

C57BL/6 mice = test: Locomotor activity in open field, alone and against U50,488; type: in vivo
[3] = Concentrations in plasma and brain tissue of mice after a single IP dose; details: single 10 mg/kg IP
[4] = mouse brain, single administration; cited from earlier work
[5] = U2OS-hKOR-βarrestin2-DX cells, 1 μM U69,593, n ≥ 3

Structure (SMILES)	IC50 [1] [nM]	IC50 [2] [nM]	IC50 (hKOR; [5]) [nM]	β arrestin 2 Inhibition (% U69,593 Stimulation) 1 μm (hKOR)	β arrestin 2 Inhibition (% U69,593 Stimulation) 10 Nm (hKOR)	β arrestin 2 Inhibition (% U69,593 Stimulation) 100 Nm (hKOR)	other results
Cc1cc(C)c(S(=O)(=O)N2CCc3cc(C(=O)NCCN(Cc4ccccc4)C(C)C)ccc3C2)c(C)c1 [Compound 1c, N-(2-(Benzyl(isopropyl)amino)ethyl)-2-(mesitylsulfonyl)-1,2,3,4-tetrahydroisoquinoline-6-carboxamide]	113 ± 42	1120	930 ± 150				
Cc1ccc(S(=O)(=O)N2CCc3cc(C(=O)NCCN(Cc4ccc(Cl)cc4)C(C)(C)C)ccc3C2)cc1 [Compound 1l, N-(2-((4-Chlorobenzyl)(tert-butyl)amino)ethyl)-2-tosyl-1,2,3,4-tetrahydroisoquinoline-6-carboxamide]				1.5 % U69,593 Stimulation	29.9 % U69,593 Stimulation	0.4 % U69,593 Stimulation	effect of pretreatment on U50,488 hypolocomotion (C57BL/6 mice; 10-minute pretreatment, 10 mg/kg i.p., vs vehicle pretreatment followed by U50,488, FIG. 3): prevents the development of U50,488 hypolocomotion; suppression of locomotor (ambulatory) activity compared to vehicle (C57BL/6 mice; C57BL/6 mice, open field, 1 hour, FIG. 2): not to suppress activity compared to vehicle; clearance from brain tissue ([3]; 4h measurement): almost fully cleared; crossing of the blood brain barrier into the CNS ([3]; brain tissue, within 0.5 h): cross the blood brain barrier into the CNS at concentrations similar to norBNI
Cc1ccc(S(=O)(=O)N(C)Cc2ccc(C(=O)N(C)CCN(Cc3ccccc3)C(C)C)cc2)cc1 [Compound 1a, N-(2-(Benzyl(isopropyl)amino)ethyl)-N-methyl-4-((N,4-dimethylphenylsulfonamido)methyl)benzamide, reference compound]							IC50 (nM) ± S.E.M. [35S]GTPγS [1]: inactive; IC50 (nM) ± S.E.M. ERK [2]: inactive; IC50 (nM) ± S.E.M. βarr2 (hKOR; [5]): inactive
Oc1ccc2c3c1O[C@H]1c4[nH]c5c(c4C[C@@]4(O)[C@@H](C2)N(CC2CC2)CC[C@]314)C[C@@]1(O)[C@H]2Cc3ccc(O)c4c3[C@@]1(CCN2CC1CC1)[C@H]5O4 [norBNI, nor-binaltorphimine dihydrochloride, reference compound]				0.9 % U69,593 Stimulation	0.1 % U69,593 Stimulation	0.6 % U69,593 Stimulation	time after which still detected in brain tissue [4]: more than 21 days; presence in brain tissue ([3]; after 72 h): still significantly present
Cc1cc(C)c(S(=O)(=O)N2CCc3cc(C(=O)NCCN(Cc4ccc(Br)cc4)C(C)(C)C)ccc3C2)c(C)c1 [Compound 1n, N-(2-((4-Bromobenzyl)(tert-butyl)amino)ethyl)-2-(mesitylsulfonyl)-1,2,3,4-tetrahydroisoquinoline-6-carboxamide]	106 ± 16	1340	710 ± 150				
CCc1ccc(S(=O)(=O)N2CCc3cc(C(=O)NCCN(Cc4ccc(Br)cc4)C(C)C)ccc3C2)cc1 [Compound 1g, N-(2-((4-Bromobenzyl)(isopropyl)amino)ethyl)-2-((4-ethylphenyl)sulfonyl)-1,2,3,4-tetrahydroisoquinoline-6-carboxamide]	33 ± 11	314 ± 56	350 ± 68				
Cc1ccc(S(=O)(=O)N2CCc3cc(C(=O)NCCN(Cc4ccc(Br)cc4)C(C)(C)C)ccc3C2)cc1 [Compound 1m, N-(2-((4-Bromobenzyl)(tert-butyl)amino)ethyl)-2-tosyl-1,2,3,4-tetrahydroisoquinoline-6-carboxamide]	2.9 ± 1.2	87 ± 17	93 ± 30				
COc1ccc(CN(CCNC(=O)c2ccc3c(c2)CCN(S(=O)(=O)c2ccc(C)cc2)C3)C(C)(C)C)cc1 [Compound 1b, N-(2-(tert-butyl(4-methoxybenzyl)amino)ethyl)-2-tosyl-1,2,3,4-tetrahydroisoquinoline-6-carboxamide]				0.0 % U69,593 Stimulation	0.0 % U69,593 Stimulation	0.8 % U69,593 Stimulation	
Cc1ccc(S(=O)(=O)N2CCc3cc(C(=O)NCCN(Cc4ccccc4)C(C)(C)C)ccc3C2)cc1 [Compound 1h, N-(2-(Benzyl(tert-butyl)amino)ethyl)-2-tosyl-1,2,3,4-tetrahydroisoquinoline-6-carboxamide]	5.28 ± 0.6	49.1 ± 9.7	104 ± 8.2				
